These results are taken from PubChem BioAssay AID1981 (Southern Research Specialized Biocontainment Screening …, 2009).

Structures are written as SMILES.

The experiment concerns S. Typhimurium PhoP-promoter GFP reporter counterscreen, fluorescence, 4 h. The experiment in a line: S. Typhimurium GFP fluorescence modified counterscreen for PhoP regulon inhibitor project dose response (AID 1981). (In general: The purpose of a counterscreen is to sort out artefacts and off-target activity.)

Turning to `C=C1c2cccc(O)c2C(O)=C2C(=O)[C@]3(O)C(O)=C(C(N)=O)C(=O)[C@@H](N(C)C)[C@@H]3[C@@H](O)[C@H]12`, the IC50 is 0.39 µM.

As to `CCOc1ccc(Nc2c3ccccc3nc3ccccc23)cc1`, the concentration for half-maximal inhibition (IC50) was 94 µM. For `O=C(O)CSc1cc(NS(=O)(=O)c2cccc([N+](=O)[O-])c2)c2ccccc2c1O` the value was 73.2 µM; for `Oc1ccc(/C=N/Nc2nccnc2Cl)c(O)c1`, 63.2 µM; for `Oc1ccc(CN2CCN(Cc3ccccc3)CC2)c2cccnc12`, 59.2 µM. Regarding `CCc1ccc(S(=O)(=O)/N=C2/C=C(Sc3ncn[nH]3)C(=O)c3ccccc32)cc1`, the IC50 was 138 µM. With `Oc1ccc(CNc2ccccc2F)c2cccnc12`, the half-inhibitory concentration (IC50) is 76.5 µM. For `CCOC(=O)C1=Nc2ccccc2C1=[N+]=[N-]` the value was 50 µM; for `CCn1cc(C(=O)NCC(C)C)c(=O)c2cc(F)c(N3CCN(C)CC3)cc21`, 72.6 µM. For `O=C(CSc1ccccn1)N/N=C/c1cc([N+](=O)[O-])ccc1O`, the IC50 was 45.6 µM. Then `CCc1ccc(CNc2ccc(O)cc2)cc1`, with 94.9 µM; and `O=C(/C=C/c1ccco1)Oc1cc(Br)cc(/C=N/NC(=O)c2ccccc2O)c1`, with 134 µM. Then `Cc1conc1NC(c1cccs1)c1ccc2cccnc2c1O` (stereo not drawn), with 36.8 µM; and `Cc1ccnc(NC(c2cccnc2)c2ccc3cccnc3c2O)c1` (stereo not drawn), with 76.4 µM; and `Cc1ccccc1NC(=O)CCC(=O)N/N=C/c1cc([N+](=O)[O-])ccc1O`, with 138 µM. For `CCOc1ccc(Nc2nc(N)c3ccccc3n2)cc1`, the IC50 was 109 µM. For `COC(=O)C1C(O)C(C)C(O)C(C)(O)/C=C\C=C(/C)C(=O)Nc2c(C)c(OC(C)=O)c3c(c2O)C(=O)C(C)=C2OCOC(=C23)/C(C)=C/C(C)(O)C(O)C(C)C1O` (stereo not drawn) the value was 18.6 µM; for `COc1cc([N+](=O)[O-])cc(/C=N\NC(=O)C2COc3ccccc3O2)c1O` (stereo not drawn), 141 µM; for `Clc1ccc(OCCCNCc2ccccc2)c(Br)c1`, 71.8 µM. Then `COc1cccc(/C=N\NC(=O)Cn2nnc3ccccc32)c1O`, with 75.1 µM. For `CCCCCNCC(=O)Nc1cccc(C(=O)Nc2cccc(C(F)(F)F)c2)c1` the value was 135 µM; for `O=C(Nc1nc(-c2ccccn2)cs1)c1ccc(Cl)s1`, 27.8 µM; for `C=CC1=C(C(=O)O)N2C(=O)[C@@H](NC(=O)/C(=N/OCC(=O)O)c3csc(N)n3)[C@H]2SC1`, 17.9 µM. On to `O=C(N/N=C\c1cccc([N+](=O)[O-])c1O)C1COc2ccccc2O1` (stereo not drawn), for which the half-maximal inhibitory concentration (IC50) was 96 µM. Then `NC1=NC[C@@H](Cc2ccc(O)cc2)N1CCCCC1CCCCC1`, with 40.2 µM; and `Cc1ccc(-c2c[n+](CC(=O)Nc3nc(-c4ccc(F)cc4)cs3)c3n2CCC3)cc1`, with 72.5 µM. For `Cc1cc(C(C)(C)CC(C)(C)C)ccc1OCCOCC[N+](C)(C)Cc1ccccc1` the value was 34.6 µM; for `CC(C)(C)/C(O)=C/c1nc2cc(Cl)ccc2oc1=O`, 55 µM; for `C/C(=N\Nc1nc2ccccc2[nH]1)c1ccccn1`, 29.3 µM. Then `Cc1ccc(Nc2c3c(nc4ccccc24)CCC3)cc1`, with 146 µM; and `CCCCOc1ccc(Br)cc1CSC(=N)N`, with 97.8 µM. With `Nc1ncncc1-c1ccc([N+](=O)[O-])cc1`, the 50% inhibitory concentration (IC50) is 136 µM. For `CN1/C(=C\C=C\C2=[N+](C)c3ccc4ccccc4c3C2(C)C)C(C)(C)c2ccccc21` the value was 14.1 µM; for `ON=C1/C(=N\O)CC2(C/C1=N/O)OCCO2`, 125 µM; for `OC(c1cc(-c2ccc(C(F)(F)F)cc2)nc(C(F)(F)F)c1)C1CCCCN1` (stereo not drawn), 42.2 µM. Then `CC(=O)NC(c1cccs1)c1cc([N+](=O)[O-])c2cccnc2c1O` (stereo not drawn), with 35.5 µM; and `O=C1C(SCCO)=C(SCCO)C(=O)c2ccccc21`, with 64.9 µM. Then `C[C@H]1c2cccc(O)c2C(O)=C2C(=O)[C@]3(O)C(O)=C(C(N)=O)C(=O)[C@@H](N(C)C)[C@@H]3[C@@H](O)[C@@H]21`, with 1.54 µM.

Broadly, the IC50 is the concentration needed to halve the response being measured.
